Laboratory results reported in US11945798B2, “Substituted aminopyridine compounds as EGFR inhibitors” (YUHAN CORPORATION, priority 2021, dated 2024).
Like-named read-outs stand apart in the source and are kept apart here.

Tests used:
EGFR wildtype (WT) = EGFR wildtype (WT) (Homo sapiens, UniProt P00533); assay: Biochemical EGFR kinase assay (Lance Ultra TR-FRET), wildtype
Procedure: (§1) Biochemical EGFR kinase assays were conducted using Lance Ultra time-resolved fluorescence resonance energy transfer (TR-FRET) technology from Perkin-Elmer. Compounds of the invention were initially diluted to 20 mM in 100% DMSO for storage and made into kinase buffer solution to create a compound concentration ranging from 0.003 μM and 10 μM.
(§2) Each kinase reactions were incubated at room temperature for 1 hour and then stopped by the addition of 4 μL of stop solution (10 mM EDTA). The specific Europium-labeled-anti-phosphopeptide antibody (PerkinElmer, AD0069) diluted in LANCE detection buffer was then added to a final concentration of 2 nM. After 60 minutes incubation at room temperature the LANCE signal was measured on an EnVision Multilabel Reader (Perkin-Elmer). Excitation wavelength was set at 320 nm and emission monitored at 615 nm (donor) and 665 nm (acceptor). The IC50 values were determined using GraphPad prism software (GraphPad Software, Inc., San Diego, CA, USA).

EGFR L858R/T790M/C797S = EGFR L858R/T790M/C797S (Homo sapiens, UniProt P00533, C797S/L858R/T790M); assay: Biochemical EGFR kinase assay (Lance Ultra TR-FRET), L858R/T790M/C797S
Procedure: as §1, §2

EGFR del19/C797S = EGFR del19/C797S (Homo sapiens, UniProt P00533, C797S/DEL746-750); assay: Biochemical EGFR kinase assay (Lance Ultra TR-FRET), del19/C797S
Procedure: as §1, §2

EGFR L858R/C797S = EGFR L858R/C797S (Homo sapiens, UniProt P00533, C797S/L858R); assay: Biochemical EGFR kinase assay (Lance Ultra TR-FRET), L858R/C797S
Procedure: as §1, §2

EGFR del19/T790M/C797S = EGFR del19/T790M/C797S (Homo sapiens, UniProt P00533, C797S/DEL746-750/T790M); assay: Biochemical EGFR kinase assay (Lance Ultra TR-FRET), del19/T790M/C797S
Procedure: as §1, §2

[1] = IC50 WT (nM) 100 μM ATP, 100 μM ATP
[2] = IC50 L858R/T790M/C797S (nM) 100 μM ATP, 100 μM ATP
[3] = IC50 del19/C797S (nM) 100 μM ATP, 100 μM ATP
[4] = IC50 L858R/C797S (nM) 100 μM ATP, 100 μM ATP
[5] = IC50 del19/T790M/C797S (nM) 100 μM ATP, 100 μM ATP
[6] = Km ATP, read-out: IC50 del19/T790M/C797S (nM) Km ATP
[7] = Km ATP, read-out: IC50 WT (nM) Km ATP
[8] = Km ATP, read-out: IC50 L858R/T790M/C797S (nM) Km ATP
[9] = Km ATP, read-out: IC50 del19/C797S (nM) Km ATP
[10] = Km ATP, read-out: IC50 L858R/C797S (nM) Km ATP
[11] = read-out: IC50 WT (nM) 100 μM ATP, 100 μM ATP
[12] = read-out: IC50 del19/C797S (nM) 100 μM ATP, 100 μM ATP
[13] = read-out: IC50 L858R/C797S (nM) 100 μM ATP, 100 μM ATP

O=C(c1cnc(Nc2ccnc(-c3cnn(S(=O)(=O)C4CC4)c3)n2)cc1N[C@H]1CC[C@H](O)C1)C1CC1 [Example 24, Cyclopropyl(6-((2-(1-(cyclopropylsulfonyl)-1H-pyrazol-4-yl)pyrimidin-4-yl)amino)-4-(((1S,3S)-3-hydroxycyclopentyl)amino)pyridin-3-yl)methanone]
IC50 (EGFR wildtype (WT); [1]): > 10000 nM | IC50 (EGFR L858R/T790M/C797S; [2]): 4.4 nM | IC50 (EGFR del19/C797S; [3]): 70.9 nM | IC50 (EGFR L858R/C797S; [4]): 79.1 nM

O=C(c1cnc(Nc2ccnc(-c3cnn(S(=O)(=O)C4CC4)c3)n2)cc1N[C@H]1CC[C@@H](O)C1)C1CC1 [Example 25, Cyclopropyl(6-((2-(1-(cyclopropylsulfonyl)-1H-pyrazol-4-yl)pyrimidin-4-yl)amino)-4-(((1S,3R)-3-hydroxycyclopentyl)amino)pyridin-3-yl)methanone]
IC50 (EGFR del19/T790M/C797S; [5]): 0.9 nM | IC50 (EGFR wildtype (WT); [1]): > 10000 nM | IC50 (EGFR L858R/T790M/C797S; [2]): 1 nM | IC50 (EGFR del19/C797S; [3]): 11.8 nM | IC50 (EGFR L858R/C797S; [4]): 29.4 nM

O=C(c1cnc(Nc2ccnc(-c3cnn(S(=O)(=O)C4CC4)c3)n2)cc1NC1CCC(CO)C1)C1CC1 (centres unmarked) [Example 13, Cyclopropyl(6-((2-(1-(cyclopropylsulfonyl)-1H-pyrazol-4-yl)pyrimidin-4-yl)amino)-4-((3-(hydroxymethyl)cyclopentyl)amino)pyridin-3-yl)methanone]
IC50 (EGFR del19/T790M/C797S; [6]): 0.2 nM | IC50 (EGFR wildtype (WT); [7]): 28.2 nM | IC50 (EGFR L858R/T790M/C797S; [8]): 0.2 nM | IC50 (EGFR del19/C797S; [9]): 4.5 nM | IC50 (EGFR L858R/C797S; [10]): 61.7 nM

O=C(c1cnc(Nc2ccnc(-c3cnn(S(=O)(=O)C4CC4)c3)n2)cc1NC1CCC(NCCO)CC1)C1CC1 (centres unmarked) [Example 52, Cyclopropyl(6-((2-(1-(cyclopropylsulfonyl)-1H-pyrazol-4-yl)pyrimidin-4-yl)amino)-4-((4-((2-hydroxyethyl)amino)cyclohexyl)amino)pyridin-3-yl)methanone]
IC50 (EGFR del19/T790M/C797S; [5]): 1.1 nM | IC50 (EGFR wildtype (WT); [1]): > 10000 nM | IC50 (EGFR L858R/T790M/C797S; [2]): 1.8 nM | IC50 (EGFR del19/C797S; [3]): 26 nM | IC50 (EGFR L858R/C797S; [4]): 15.2 nM

CN[C@H]1CC[C@@H](Nc2cc(Nc3ccnc(-c4cnn(S(=O)(=O)C5CC5)c4)n3)ncc2C(=O)C2CC2)CC1 [Example 32, Cyclopropyl-(6-((2-(1-(cyclopropylsulfonyl)-1H-pyrazol-4-yl)pyrimidin-4-yl)amino)-4-(((1s,4s)-4-(methylamino)cyclohexyl)amino)pyridin-3-yl)methanone]
IC50 (EGFR del19/T790M/C797S; [5]): 1.2 nM | IC50 (EGFR wildtype (WT); [1]): > 10000 nM | IC50 (EGFR L858R/T790M/C797S; [2]): 2 nM | IC50 (EGFR del19/C797S; [3]): 51.1 nM | IC50 (EGFR L858R/C797S; [4]): 54.7 nM

6-((2-(1-(Cyclopropylsulfonyl)-1H-pyrazol-4-yl)pyrimidin-4-yl)amino)-N-(2-fluoroethyl)-4-(((1R,3S)-3-(hydroxymethyl)cyclopentyl)amino)nicotinamide [Example 75]
IC50 (EGFR del19/T790M/C797S; read-out: IC50 del19/T790M/C797S (nM) 100 μM ATP, 100 μM ATP): 0.7 nM | IC50 (EGFR wildtype (WT); [11]): > 10000 nM | IC50 (EGFR del19/C797S; [12]): 14.5 nM | IC50 (EGFR L858R/C797S; [13]): 30.5 nM

CC(C)C(=O)NC[C@H]1CC[C@H](CNc2cc(Nc3ccnc(-c4cnn(S(=O)(=O)C5CC5)c4)n3)ncc2C(=O)C2CC2)CC1 [Example 72, N-(((1r,4r)-4-(((5-(Cyclopropanecarbonyl)-2-((2-(1-(cyclopropylsulfonyl)-1H-pyrazol-4-yl)pyrimidin-4-yl)amino)pyridin-4-yl)amino)methyl)cyclohexyl)methyl)isobutyramide]
IC50 (EGFR del19/T790M/C797S; [6]): 1 nM | IC50 (EGFR wildtype (WT); [7]): 2040 nM | IC50 (EGFR del19/C797S; [9]): 7.2 nM | IC50 (EGFR L858R/C797S; [10]): 45.8 nM

CN(C)C[C@H]1CC[C@H](CNc2cc(Nc3ccnc(-c4cnn(C5CC5)c4)n3)ncc2C(=O)C2CC2)CC1 [Example 60, Cyclopropyl(6-((2-(1-cyclopropyl-1H-pyrazol-4-yl)pyrimidin-4-yl)amino)-4-((((1r,4r)-4-((dimethylamino)methyl)cyclohexyl)methyl)amino)pyridin-3-yl)methanone]
IC50 (EGFR del19/T790M/C797S; [6]): 5.4 nM | IC50 (EGFR wildtype (WT); [7]): 430 nM | IC50 (EGFR L858R/T790M/C797S; [8]): 3.5 nM | IC50 (EGFR L858R/C797S; [10]): 115 nM

CC(C)Nc1cc(Nc2ccnc(-c3cnn(S(=O)(=O)C4CC4)c3)n2)ncc1C1=CCCCO1 [Example 84, N^2-(2-(1-(Cyclopropylsulfonyl)-1H-pyrazol-4-yl)pyrimidin-4-yl)-5-(3,4-dihydro-2H-pyran-6-yl)-N^4-isopropylpyridine-2,4-diamine]
IC50 (EGFR del19/T790M/C797S; [5]): 4.5 nM | IC50 (EGFR wildtype (WT); [1]): > 10000 nM | IC50 (EGFR del19/C797S; [3]): 107 nM | IC50 (EGFR L858R/C797S; [4]): 523 nM

Cyclopropyl(6-((2-(1-(cyclopropylsulfonyl)-1H-pyrazol-4-yl)pyrimidin-4-yl)amino)-4-((4-((4-methylpiperazin-1-yl)amino)cyclohexyl)amino)pyridin-3-yl)methanone [Example 54]
IC50 (EGFR wildtype (WT); [11]): > 10000 nM | IC50 (EGFR del19/C797S; [12]): 66.1 nM | IC50 (EGFR L858R/C797S; [13]): 33.8 nM

CC(C)Nc1cc(Nc2ccnc(-c3cnn(S(=O)(=O)C4CC4)c3)n2)ncc1F [Example 41, N^2-(2-(1-(Cyclopropylsulfonyl)-1H-pyrazol-4-yl)pyrimidin-4-yl)-5-fluoro-N^4-isopropylpyridine-2,4-diamine]
IC50 (EGFR wildtype (WT); [7]): 145 nM | IC50 (EGFR L858R/T790M/C797S; [8]): 5.6 nM | IC50 (EGFR del19/C797S; [9]): 47.7 nM | IC50 (EGFR L858R/C797S; [10]): 444 nM

CC(=O)c1cnc(Nc2ccnc(-c3cnn(S(=O)(=O)C4CC4)c3)n2)cc1OC[C@H]1CC[C@H](CN(C)C)CC1 [Example 65, 1-(6-((2-(1-(Cyclopropylsulfonyl)-1H-pyrazol-4-yl)pyrimidin-4-yl)amino)-4-(((1r,4r)-4-((dimethylamino)methyl)cyclohexyl)methoxy)pyridin-3-yl)ethan-1-one]
IC50 (EGFR del19/T790M/C797S; [6]): 0.7 nM | IC50 (EGFR wildtype (WT); [7]): 389 nM | IC50 (EGFR L858R/T790M/C797S; [8]): 5.8 nM | IC50 (EGFR del19/C797S; [9]): 52.5 nM

CN(C)C[C@H]1CC[C@H](CNc2cc(Nc3ccnc(-c4cnn(CC5CC5)c4)n3)ncc2C(=O)C2CC2)CC1 [Example 61, Cyclopropyl(6-((2-(1-(cyclopropylmethyl)-1H-pyrazol-4-yl)pyrimidin-4-yl)amino)-4-((((1r,4r)-4-((dimethylamino)methyl)cyclohexyl)methyl)amino)pyridin-3-yl)methanone]
IC50 (EGFR del19/T790M/C797S; [6]): 5.7 nM | IC50 (EGFR wildtype (WT); [7]): 415 nM | IC50 (EGFR L858R/C797S; [10]): 123 nM

CC(C)(O)[C@H]1CC[C@@H](Nc2cc(Nc3ccnc(-c4cnn(S(=O)(=O)C5CC5)c4)n3)ncc2C(=O)C(F)F)CC1 [Example 50, 1-(6-((2-(1-(Cyclopropylsulfonyl)-1H-pyrazol-4-yl)pyrimidin-4-yl)amino)-4-(((1s,4s)-4-(2-hydroxypropan-2-yl)cyclohexyl)amino)pyridin-3-yl)-2,2-difluoroethan-1-one]
IC50 (EGFR wildtype (WT); [1]): > 10000 nM | IC50 (EGFR wildtype (WT); [7]): 1170 nM | IC50 (EGFR L858R/T790M/C797S; [2]): 6.9 nM | IC50 (EGFR L858R/T790M/C797S; [8]): 1.1 nM | IC50 (EGFR del19/C797S; [3]): 8.8 nM | IC50 (EGFR del19/C797S; [9]): 17.2 nM | IC50 (EGFR L858R/C797S; [4]): 157 nM | IC50 (EGFR L858R/C797S; [10]): 42.8 nM

O=C(c1cnc(Nc2ccnc(-c3cnn(S(=O)(=O)C4CC4)c3)n2)cc1NCCF)C1CC1 [Example 3, Cyclopropyl(6-((2-(1-(cyclopropylsulfonyl)-1H-pyrazol-4-yl)pyrimidin-4-yl)amino)-4-((2-fluoroethyl)amino)pyridin-3-yl)methanone]
IC50 (EGFR del19/T790M/C797S; [6]): 0.9 nM | IC50 (EGFR wildtype (WT); [7]): 4200 nM | IC50 (EGFR L858R/T790M/C797S; [8]): 5.4 nM | IC50 (EGFR del19/C797S; [9]): 232 nM

O=C(c1cnc(Nc2ccnc(-c3cnn(S(=O)(=O)C4CC4)c3)n2)cc1N[C@H]1CC[C@@H](NCCF)CC1)C(F)F [Example 51, 1-(6-((2-(1-(Cyclopropylsulfonyl)-1H-pyrazol-4-yl)pyrimidin-4-yl)amino)-4-(((1s,4s)-4-((2-fluoroethyl)amino)cyclohexyl)amino)pyridin-3-yl)-2,2-difluoroethan-1-one]
IC50 (EGFR wildtype (WT); [1]): > 10000 nM | IC50 (EGFR wildtype (WT); [7]): 1240 nM | IC50 (EGFR L858R/T790M/C797S; [2]): 4.5 nM | IC50 (EGFR L858R/T790M/C797S; [8]): 1.1 nM | IC50 (EGFR del19/C797S; [3]): 18.9 nM | IC50 (EGFR del19/C797S; [9]): 45.4 nM | IC50 (EGFR L858R/C797S; [4]): 407 nM | IC50 (EGFR L858R/C797S; [10]): 47.1 nM
